Experimental data as given in patent publication US20130137975A1, “PET IMAGING” (OSI PHARMACEUTICALS, LLC, priority 2010, published 2013).
Where two headings read alike, the source gives them in different places.

What was measured:
H292 cells [1] = assay: 3H-2-deoxyglucose uptake assay in H292 cells; type: cell-based; details: for 3H-2-deoxyglucose uptake (FIG. 16): 30 minute treatment, selected concentrations of each agent
Experimental: (§1) H292 and H441 cells were seeded in 12 well microtiter plates (Becton Dickinson) at 9.0×10^5 cells per well in normal glucose (11.1 mM) media for 6 hours (n=3 wells/group). The media was then changed to 5.5 mM glucose media and the cells were allowed to equilibrate overnight. On the day of the assay the media was again removed and replaced with 0.0 mM glucose (glucose starvation) for three hours. […] After a 5, 30, or 45-minute exposure the media was removed, the cells placed on ice and washed with ice-cold PBS buffer solution. The PBS was then removed and the cells were lysed in RIPA buffer for 15 minutes on ice. The lysates were harvested and counted in a Packard Liquid Scintillation counter.

NCI-H441 xenografts = assay: tumor growth of NCI-H441 xenografts under daily treatment; type: in vivo, mice; details: daily treatment with 60 mg/kg
Excerpt: (§2) Palpable tumors were evident approximately 10 days post implant. When the tumors achieved a volume of approximately 300 mm^3, the animals were sorted, randomized, and placed on study.

pIGF-1R = target: T1, pIGF-1R (Homo sapiens, UniProt P08069); assay: Western blot of NCI-H292 cells, target inhibition; type: cell-based
T1 construct: endogenous in cells; host or cells: NCI-H292
T1 sequence (P08069 31-1367): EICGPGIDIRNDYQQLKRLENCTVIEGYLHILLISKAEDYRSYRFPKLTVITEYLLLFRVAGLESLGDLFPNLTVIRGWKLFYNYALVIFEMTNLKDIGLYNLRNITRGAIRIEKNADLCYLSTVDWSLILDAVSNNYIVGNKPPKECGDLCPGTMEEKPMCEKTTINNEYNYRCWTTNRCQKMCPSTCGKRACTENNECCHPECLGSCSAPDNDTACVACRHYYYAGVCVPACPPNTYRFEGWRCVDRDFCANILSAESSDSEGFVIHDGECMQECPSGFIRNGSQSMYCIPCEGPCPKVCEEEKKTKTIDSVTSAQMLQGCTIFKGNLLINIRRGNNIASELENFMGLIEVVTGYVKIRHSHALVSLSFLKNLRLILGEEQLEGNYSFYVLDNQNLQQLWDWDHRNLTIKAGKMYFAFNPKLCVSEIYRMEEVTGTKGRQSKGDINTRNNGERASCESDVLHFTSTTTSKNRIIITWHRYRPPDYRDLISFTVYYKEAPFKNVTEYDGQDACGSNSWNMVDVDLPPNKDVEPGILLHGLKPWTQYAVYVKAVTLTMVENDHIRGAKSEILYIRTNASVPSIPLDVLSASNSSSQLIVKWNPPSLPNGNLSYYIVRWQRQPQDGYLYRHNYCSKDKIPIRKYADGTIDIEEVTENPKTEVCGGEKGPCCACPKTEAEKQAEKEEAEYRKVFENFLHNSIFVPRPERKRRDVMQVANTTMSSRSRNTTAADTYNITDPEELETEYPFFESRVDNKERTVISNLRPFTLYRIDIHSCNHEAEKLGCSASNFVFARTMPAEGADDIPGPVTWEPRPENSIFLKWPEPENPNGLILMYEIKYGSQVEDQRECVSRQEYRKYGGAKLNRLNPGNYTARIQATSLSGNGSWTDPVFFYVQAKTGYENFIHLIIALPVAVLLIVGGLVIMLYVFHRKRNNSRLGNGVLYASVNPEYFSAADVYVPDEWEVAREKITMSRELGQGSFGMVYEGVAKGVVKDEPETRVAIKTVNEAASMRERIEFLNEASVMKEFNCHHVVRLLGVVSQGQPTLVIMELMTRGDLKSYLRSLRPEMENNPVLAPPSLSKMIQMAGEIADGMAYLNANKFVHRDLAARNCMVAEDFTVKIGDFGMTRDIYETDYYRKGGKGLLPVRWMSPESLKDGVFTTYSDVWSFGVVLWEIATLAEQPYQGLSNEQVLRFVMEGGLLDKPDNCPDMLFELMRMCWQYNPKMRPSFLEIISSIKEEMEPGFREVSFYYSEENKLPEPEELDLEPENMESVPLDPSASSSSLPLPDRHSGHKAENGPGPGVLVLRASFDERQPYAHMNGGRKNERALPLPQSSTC

H292 xenografts = assay: 18F-FDG-PET imaging of H292 xenografts; type: in vivo, athymic nu/nu mice; details: 60 mg/kg oral; 2 and 4 hours post dosing
Experimental: (§3) Palpable tumors were evident approximately 10 days post implant. […] Mice were fasted from food 12 hours prior to imaging with ^18F-FDG (VUIIS Cyclotron). […] After dosing, the mice were kept isolated in a chamber at a constant temperature of 30° C. using a warm air circulating device (Harvard Apparatus). […] After 30 minutes, PET imaging was performed using a Concord small animal PET imager. Images were then collected and reconstructed. Analyses of separate regions of interest (ROI) drawn over the area of the tumors (and muscle) were conducted and glucose uptake was calculated as % injected dose per gram of tissue against known phantom standards.

H441 xenografts = assay: 18F-FDG-PET imaging of H441 xenografts; type: in vivo, athymic nu/nu mice; details: 60 mg/kg oral; any time point evaluated (2, 4, 24 hours)
Experimental: as §3

pERK, pAKT, pS6, AS160 = assay: Western blot of NCI-H292 tumor lysates in vivo, markers of altered glycolysis; design: species or system mice; details: 60 mg/kg
Experimental: as §2
Tumors were homogenized in 1 mL of TGH buffer per 200 mg of tissue on ice at 15,000 rpm until total homogenization was achieved. For analysis of IGF-1R and IR phosphorylation status, after pre-clearing by centrifugation (14,000 rpm/5 minutes), the lysate was incubated overnight at 4° C. with an antiphosphotyrosine antibody, and 30 μL Protein A-sephorase was then added and further incubated for an additional two hours. […] Antibodies were obtained from Santa Cruz Biotechnology.

NCI H292 xenografts = assay: tumor growth of NCI H292 xenografts under daily treatment; type: in vivo, mice; details: daily treatment with 60 mg/kg
Excerpt: as §2

NCI-H441 cells = assay: 3H-2-deoxyglucose uptake assay in H441 cells; type: cell-based; details: 30 minutes after treatment; higher doses than in NCI H292 cells
Experimental: as §1

IGF-1R = IGF-1R (Homo sapiens, UniProt P08069); details: 1 μM OSI-906; panel of 116 kinases; cited from earlier work
IGF-1R, sequence (P08069 31-1367): as above

H292 tumors = assay: 18F-FDG biodistribution study, H292 tumors; type: in vivo, athymic nu/nu mice; details: 60 mg/kg oral; between 2 and 8 hours post treatment; scintillation counting
Experimental: Palpable tumors were evident approximately 10 days post implant. […] Mice were fasted for 12-16 hours prior to dosing with the radiopharmaceutical. […] Mice were kept isolated and under a warming lamp at a temperature of approximately 30° C. One hour before the desired sacrifice time, the mice were dosed with 4-6 μCi of ^18F-FDG via the lateral tail vein. The mice were sacrificed 60 minutes later via CO2 asphyxiation, and selected tissues removed, rinsed, weighed and then placed into scintillation tubes. The samples were counted using a Cobra II Scintillation Counter and the % injected dose per gram of tissue calculated against prepared standards.

pAKT, pS6, pERK, AS160 = assay: Western blot of H292 in vitro cell lysates, downstream markers of altered glycolysis; type: cell-based
H292 cells [2] = assay: analysis for cell death by FACS; type: cell-based; details: 1.0-30 μM, compared to 0.05% DMSO controls
phospho-IGF1-R = target: T2, phospho-IGF1-R (Homo sapiens, UniProt P08069); assay: target inhibition in H292 tumor lysates in vivo (RTK array analysis); design: species or system mice; details: for inhibition at 60 mg/kg: NCI-H292, read-out: target inhibition of phospho-IGF1-R, single dose 60 mg/kg
T2 construct: endogenous in cells; host or cells: NCI-H292 cells grown as subcutaneous xenograft tumours in athymic nu/nu mice
T2 sequence (P08069 31-1367): as above
Excerpt: All animal studies were under the approval of the Institutional Animal Care and Use Committee in an American Association for Accreditation of Laboratory Animal Care-accredited vivarium and in accordance with the Institute of Laboratory Animal Research (Guide for Care and Use of Laboratory Animals, NIH, Bethesda, Md.). Mice were 8-week-old athymic nu/nu mice (Charles Rivers) and were housed in clean specific pathogen free rooms in groups of four mice per cage. The mice were allowed access to sterile rodent chow and water ad libitum except when undergoing FDG-PET imaging, as noted. The H292 and H441 cells were harvested from T225 flasks at 90% confluency and implanted in the right thigh subcutaneously at a concentration of 1.0×10^7 cells per 100 μL of PBS inoculum. […] When the tumors achieved a volume of approximately 300 mm^3, the animals were sorted, randomized, and placed on study.
Tumor lysates were prepared according to the manufacturer's protocol (Proteome Profiler, R&D Systems). Briefly, tumor lysates were solubilized in NP-40 lysis buffer and re-suspended for 30 minutes at 2° C. with rocking. This preparation was centrifuged at 14,000×g for 5 minutes and transferred to a clean tube. Protein concentration was then determined by BCA assay. The lysate was then incubated with the Human Phospho-RTK array at 1000 μg overnight at 2° C. with rocking. The arrays were then washed, and incubated with freshly prepared detection antibody for two hours. After washing, the arrays were exposed to film for 0.5-3.0 minutes. The developed arrays were then quantitfied using a Kodak scanner and image analysis software.

For C=C1[C@@H](C)[C@H]2[C@H](Cc3ccccc3)NC(=O)[C@]23OC(=O)/C=C/[C@H](O)CCC[C@@H](C)C/C=C/[C@H]3[C@@H]1O [Cytochalasin B, reference compound], the “3H-2-deoxyglucose uptake, positive control” value (H292 cells [1]; 2.5-10 μM, 30 minutes post treatment (FIG. 3)) was “significantly inhibits uptake”.

In the case of CC1(O)CC(c2nc(-c3ccc4ccc(-c5ccccc5)nc4c3)c3c(N)nccn23)C1 (stereo not drawn) [OSI-906, cis-3-[8-amino-1-(2-phenyl-quinolin-7-yl)-imidazo[1,5-a]pyrazin-3-yl]-1-methylcyclobutanol], the “tumor growth compared to vehicle-treated cohort” value (NCI-H441 xenografts) is reported as “do not exhibit a difference in tumor growth”, the pIGF-1R (pIGF-1R; 30 minutes of exposure, all doses (FIG. 12)) is reported as “target inhibition” and the “pIGF-1R, time course” value (pIGF-1R; 2 hours, all concentrations (10 nM, 100 nM, 500 nM)) is reported as “reduction”. For the same molecule, the “pIGF-1R, time course” value (pIGF-1R; through 24 hours, 10 nM, 100 nM, 500 nM) was “inhibition remains through 24 hours in all but the lowest, 10 nM concentration”, the “18F-FDG uptake (PET SUV)” value (H292 xenografts) was “significant decrease” and the “18F-FDG uptake (PET SUV)” value (H441 xenografts) was “do not demonstrate a significant change”. The “phospho-AKT, phospho-S6, phospho-ERK and AS160 in tumor lysates” value (pERK, pAKT, pS6, AS160; 4 hours post treatment, compared to untreated control lysates) was “decreased signal intensity”, the “pERK, pAKT, pS6 in tumor lysates” value (pERK, pAKT, pS6, AS160; 24 hours post dose) was “return to baseline levels” and the “tumor growth compared to vehicle controls” value (NCI H292 xenografts) was “significant tumor growth inhibition”. The “3H-2-deoxyglucose uptake (FIG. 13)” value (NCI-H441 cells) was “dose dependent decrease”, the “inhibition of IGF-1R” value (IGF-1R) was “greater than 50%” and the “decrease of 18F-FDG uptake in tumor samples compared to vehicle control animals” value (H292 tumors) was 20-50%. The “signal intensity of phospho-AKT, phospho-S6 and AS160 bands” value (pAKT, pS6, pERK, AS160; 0.0 μM-30 μM, 30 minutes after drug treatment (FIG. 11)) was “dose dependent response with respect to decreased signal intensity”, the “downstream targets pERK, pAKT, pS6, AS160” value (pAKT, pS6, pERK, AS160; 30 minutes of exposure (FIG. 12)) was “inhibition of downstream targets” and the “cell death by FACS analysis” value (H292 cells [2]) was “no significant cell death”. For the same molecule, the “3H-2-deoxyglucose uptake (FIG. 16)” value (H292 cells [1]) was “rapid inhibition”, the “3H-2-deoxyglucose uptake, onset” value (H292 cells [1]; as early as five minutes post treatment, increasing concentrations) was “significant decrease” and the inhibition at 60 mg/kg (phospho-IGF1-R; 2 and 4 hours post treatment) was about 85%. The inhibition at 60 mg/kg (phospho-IGF1-R; 24 hours) was 70% and the “target inhibition of pIGF-1R, RTK array (FIGS. 17 and 18)” value (phospho-IGF1-R; single 60 mg/kg treatment, 2, 4 and 24 hours) was “strong target inhibition”.

For C#Cc1cccc(Nc2ncnc3cc(OCCOC)c(OCCOC)cc23)c1 [erlotinib, reference compound], the “3H-2-deoxyglucose uptake (FIG. 16)” value (H292 cells [1]) was “rapid inhibition”.
